From US8633315B2, “Substituted hydroxyethyl amine compounds as beta-secretase modulators and methods of use” (Amgen Inc., priority 2007, dated 2014)

Columns and labels:
[1] = molecular target: BACE1 (Homo sapiens, UniProt P56817); assay: In vitro enzymatic BACE FRET (fluorescence resonance energy transfer) assay; format: biochemical; conditions: read-out: BACE 1 FRET assay
How it was run: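 Cleavage of a quenched peptide FRET substrate (50 nM) in 0.05 M acetate pH 4.2, 10% DMSO, 100 uM genapol, 1 h incubation. Reaction stopped by Tris neutralization; fluorescence read at excitation 488 nm / […].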

[2] = tested on: Cells stably expressing Amyloid Precursor Protein (APP); assay: In vitro BACE cell-based assay (HEK cell assay): Aβ40 in conditioned medium by sandwich ELISA; conditions: Homo sapiens, HEK293
How it was run: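 APP-stably-expressing cells were grown 24 h in DMEM/10% FBS, then treated for 24 h with 10-point doses starting at 100 μM or 10 μM, at 0.1% DMSO final. Aβ40 in conditioned medium was measured by sandwich ELISA (pAb40 capture, biotinylated 6E10 detection, europium time-resolved fluorescence); IC50 from percent inhibition.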

[3] = molecular target: CYP3A4 (CYP3A) (Homo sapiens, UniProt P08684); assay: CYP3A inhibition assay (midazolam, pooled human liver microsomes); format: in vitro ADME; conditions: human, pooled human liver microsomes, pH 7.4, probe midazolam (printed as about […]); read-out: 3A4 IC50
[4] = Microsomal stability assay, human liver microsomes; format: in vitro ADME
Text: (§1) Microsomal Stability Assay

[5] = Microsomal stability assay, rat liver microsomes; format: in vitro ADME
Text: as §1

Sequence of BACE1 (P56817 46-501, species assumed): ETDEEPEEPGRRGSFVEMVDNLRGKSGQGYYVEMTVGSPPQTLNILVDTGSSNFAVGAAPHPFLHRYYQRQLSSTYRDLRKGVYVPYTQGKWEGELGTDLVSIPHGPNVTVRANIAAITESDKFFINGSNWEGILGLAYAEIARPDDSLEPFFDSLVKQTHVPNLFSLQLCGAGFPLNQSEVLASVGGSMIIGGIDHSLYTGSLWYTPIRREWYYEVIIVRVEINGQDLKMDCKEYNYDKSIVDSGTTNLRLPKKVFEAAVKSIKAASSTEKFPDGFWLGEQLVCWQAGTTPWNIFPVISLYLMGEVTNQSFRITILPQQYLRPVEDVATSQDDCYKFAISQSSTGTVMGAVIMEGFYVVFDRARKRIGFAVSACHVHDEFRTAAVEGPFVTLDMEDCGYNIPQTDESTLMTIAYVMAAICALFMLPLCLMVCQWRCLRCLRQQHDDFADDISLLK
Sequence of CYP3A4 (CYP3A) (P08684 2-503): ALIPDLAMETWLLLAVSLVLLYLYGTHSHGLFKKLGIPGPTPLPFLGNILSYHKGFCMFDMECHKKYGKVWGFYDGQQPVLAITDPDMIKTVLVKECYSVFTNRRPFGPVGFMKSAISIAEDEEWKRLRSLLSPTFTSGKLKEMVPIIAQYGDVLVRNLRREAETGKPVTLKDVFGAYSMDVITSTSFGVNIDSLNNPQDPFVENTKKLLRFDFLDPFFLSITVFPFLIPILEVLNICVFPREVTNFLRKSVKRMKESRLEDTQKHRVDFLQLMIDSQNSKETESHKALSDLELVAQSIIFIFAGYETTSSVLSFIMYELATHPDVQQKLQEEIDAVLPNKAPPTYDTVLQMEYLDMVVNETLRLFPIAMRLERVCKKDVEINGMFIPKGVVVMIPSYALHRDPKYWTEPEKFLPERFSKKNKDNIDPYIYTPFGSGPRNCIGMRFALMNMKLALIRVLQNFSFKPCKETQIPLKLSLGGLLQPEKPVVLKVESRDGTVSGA

Compound	IC50 [1] [nM]	IC50 [2] [nM]	IC50 at 10 min [3] [nM]	HLM [4] [µL/min/mg]	RLM [5] [µL/min/mg]
C=CC[C@H](NC(C)=O)[C@H](O)CN[C@H]1CC2(CCC2)Oc2c1cc(CC(C)(C)C)nc2Nc1nccs1 [compound 235]	31	121	2700	244	100
C=CC[C@H](NC(=O)COC)[C@H](O)CN[C@H]1CC2(CCC2)Oc2c(-c3ccc4c(c3)OCO4)cc(CC(C)(C)C)cc21 [compound 231, N-((1S)-1-((1R)-2-(((4S)-8-(1,3-benzodioxol-5-yl)-6-(2,2-dimethylpropyl)-3,4-dihydrospiro[chromene-2,1′-cyclobutan]-4-yl)amino)-1-hydroxyethyl)-3-buten-1-yl)-2-methoxyacetamide]	78	369	1000	284	232
CC[C@H](NC(C)=O)[C@H](O)CN[C@H]1CC2(CCC2)Oc2ncc(CC(C)(C)C)cc21 [compound 213]	60	339	27000	36	25
C=CC[C@H](NC(=O)COC)[C@H](O)CN[C@H]1CC2(CCC2)Oc2c(-c3cnc[nH]3)cc(CC(C)(C)C)cc21 [compound 218, N-((1S)-1-((1R)-2-(((4S)-6-(2,2-dimethylpropyl)-8-(1H-imidazol-5-yl)-3,4-dihydrospiro[chromene-2,1′-cyclobutan]-4-yl)amino)-1-hydroxyethyl)-3-buten-1-yl)-2-methoxyacetamide]	179	71	300	215	185
CCC[C@H](NC(=O)[C@@H](C)OC)[C@H](O)CN[C@H]1CC2(CCC2)Oc2c1cc(CC(C)(C)C)nc2NC [compound 227]	903	163	1500	119	212
C=CC[C@H](NC(=O)C1COC(c2cccnc2)O1)[C@H](O)CN[C@H]1CC2(CCC2)Oc2ncc(CC(C)(C)C)cc21 (stereo partly drawn) [compound 243, N-((1S)-1-((1R)-2-(((4′S)-6′-(2,2-dimethylpropyl)-3′,4′-dihydrospiro[cyclobutane-1,2′-pyrano[2,3-b]pyridin]-4′-yl)amino)-1-hydroxyethyl)-3-buten-1-yl)-2-(3-pyridinyl)-1,3-dioxolane-4-carboxamide]	2160	982	300	601	173
C=CC[C@H](NC(=O)COCC)[C@H](O)CN[C@H]1CC2(CCC2)Oc2ncc(CC(C)(C)C)cc21 [compound 244]	2450	3170	1300	543	176
C=CC[C@H](NC(=O)COC)[C@H](O)CN[C@H]1CC2(CCC2)Oc2c1cc(CC(C)(C)C)nc2Nc1nccs1 [compound 236]	54	366	1200	614	119
C#CC[C@H](NC(C)=O)[C@H](O)CNC1CC2(CCC2)Oc2c1cc(CC(C)(C)C)nc2NC (stereo partly drawn) [Example 221]	78	58	1900	61	106
C=CC[C@H](NC(=O)COC)[C@H](O)CN[C@H]1CC2(CCC2)Oc2c1cc(CC(C)(C)C)cc2-n1ccnc1 [Example 216, N-((1S)-1-((1R)-2-(((4S)-6-(2,2-dimethylpropyl)-8-(1H-imidazol-1-yl)-3,4-dihydrospiro[chromene-2,1′-cyclobutan]-4-yl)amino)-1-hydroxyethyl)-3-buten-1-yl)-2-methoxyacetamide]	442	328	200	49	150
C=CC[C@H](NC(=O)COC)[C@H](O)CN[C@H]1CC2(CCC2)Oc2c(-c3nccs3)cc(CC(C)(C)C)cc21 [compound 215]	57	838	1000	736	551
C=CC[C@H](NC(=O)COC)[C@H](O)CN[C@H]1CC2(CCC2)Oc2ncc(C(F)(F)C(C)(C)C)cc21 [compound 234]	2410	5630	4100	299	173
C=CC[C@H](NC(=O)COC)[C@H](O)CN[C@H]1CC2(CCC2)Oc2c(-c3cncs3)cc(CC(C)(C)C)cc21 [compound 217]	20	920	200	551	477
C=CC[C@H](NC(=O)[C@H]1CCC(=O)O1)[C@H](O)CN[C@H]1CC2(CCC2)Oc2ncc(CC(C)(C)C)cc21 [compound 211]	15	57	1300	104	137
C=CC[C@H](NC(C)=O)[C@H](O)CN[C@H]1CC2(CCC2)Oc2c1cc(CC(C)(C)C)nc2Nc1ccccc1 [compound 229, N-((1S)-1-((1R)-2-(((4′S)-6′-(2,2-dimethylpropyl)-8′-(phenylamino)-3′,4′-dihydrospiro[cyclobutane-1,2′-pyrano[2,3-c]pyridin]-4′-yl)amino)-1-hydroxyethyl)-3-buten-1-yl)acetamide]	26	987	6100	139	150
CCC[C@H](NC(=O)[C@@H](C)OC)[C@H](O)CN[C@H]1CC2(CCC2)Oc2c1cc(CC(C)(C)C)nc2Cl [compound 223, (2R)-N-((1S)-1-((1R)-2-(((4′S)-8′-chloro-6′-(2,2-dimethylpropyl)-3′,4′-dihydrospiro[cyclobutane-1,2′-pyrano[2,3-c]pyridin]-4′-yl)amino)-1-hydroxyethyl)butyl)-2-(methyloxy)propanamide]	371	10000	3500	515	249
C=CC[C@H](NC(=O)[C@@H](C)OC)[C@H](O)CN[C@H]1CC2(CCC2)Oc2c1cc(CC(C)C)cc2-n1ccnc1 [compound 208, (2R)-N-((1S)-1-((1R)-1-hydroxy-2-(((4S)-8-(1H-imidazol-1-yl)-6-(2-methylpropyl)-3,4-dihydrospiro[chromene-2,1′-cyclobutan]-4-yl)amino)ethyl)-3-buten-1-yl)-2-methoxypropanamide]	477	416	200	40.5	337
C=CC[C@H](NC(=O)[C@@H]1CN(Cc2nccs2)CCO1)[C@H](O)CN[C@H]1CC2(CCC2)Oc2ncc(CC(C)(C)C)cc21 [compound 246, (2S)-N-((1S)-1-((1R)-2-(((4′S)-6′-(2,2-dimethylpropyl)-3′,4′-dihydrospiro[cyclobutane-1,2′-pyrano[2,3-b]pyridin]-4′-yl)amino)-1-hydroxyethyl)-3-buten-1-yl)-4-(1,3-thiazol-2-ylmethyl)-2-morpholinecarboxamide]	128	116	700	736	335
C=CC[C@H](NC(=O)COC)[C@H](O)CN[C@H]1CC2(CCC2)Oc2c1cc(CC(C)C)cc2-n1ccnc1 [compound 209]	338	328	100	31	183
C=CC[C@H](NC(=O)COC)[C@H](O)CN[C@H]1CC2(CCC2)Oc2c(Br)cc(CC(C)(C)C)cc21 [compound 214]	44	2170	900	492	247
C=CC[C@H](NC(=O)COC)[C@H](O)CN[C@H]1CC2(CCC2)Oc2c1cc(CC(C)(C)C)nc2-c1nccn1C [compound 237, N-((1S)-1-((1R)-2-(((4′S)-6′-(2,2-dimethylpropyl)-8′-(1-methyl-1H-imidazol-2-yl)-3′,4′-dihydrospiro[cyclobutane-1,2′-pyrano[2,3-c]pyridin]-4′-yl)amino)-1-hydroxyethyl)-3-buten-1-yl)-2-methoxyacetamide]	1230	385	160	58	64
C=CC[C@H](NC(=O)COC)[C@H](O)CN[C@H]1CC2(CCC2)Oc2c1cc(CC(C)(C)C)nc2Nc1ccccc1 [compound 230]	40	1380	3500	345	168
CCC[C@H](NC(=O)COC)[C@H](O)CN[C@H]1CC2(CCC2)Oc2c1cc(CC(C)(C)C)nc2NC [compound 226]	617	83	5000	161	259
C#CC[C@H](NC(=O)[C@@H](C)OC)[C@H](O)CN[C@H]1CC2(CCC2)Oc2c1cc(CC(C)(C)C)nc2NC [compound 222]	1220	891	1400	165	156
